# Values joined by “and” are separate entries in the source; they are usually repeats but may differ in a detail not shown here. Equal values may be shown once.
# Test system: HepG2 cells
# Assay: Cytotoxicity evaluation
# [1] = extended treatment in the absence of S9 mix, 0.0065 mmol/L
# [2] = extended treatment in the absence of S9 mix, 0.010 mmol/L
# [3] = extended treatment in the absence of S9 mix, 0.020 mmol/L
# [4] = extended treatment in the absence of S9 mix, 0.030 mmol/L
# [5] = extended treatment in the absence of S9 mix, 0.040 mmol/L
# [6] = short treatment in absence of S9 mix, 0.025 mmol/L
# [7] = short treatment in absence of S9 mix, 0.050 mmol/L
# [8] = short treatment in absence of S9 mix, 0.100 mmol/L
# [9] = short treatment in absence of S9 mix, 0.25 mmol/L
# [10] = short treatment in the presence of S9 mix, 0.025 mmol/L
# [11] = short treatment in the presence of S9 mix, 0.050 mmol/L
# [12] = short treatment in the presence of S9 mix, 0.100 mmol/L
# [13] = short treatment in the presence of S9 mix, 0.25 mmol/L
structure (smiles),measurement,setting,value
"CCCCC/C=C\C/C=C\CCCCCCCCP(=O)(OCC)OCC [NKS-3, diethyl (9Z,12Z)-octadeca-9,12-dien-1-ylphosphonate]",concentrations with evidence of toxicity,extended treatment in the absence of S9 mix,≥ 30 µM
same,CBPI,[1],1.64 and 1.74
same,Mean CBPI,[1],1.69
same,CBPI,[2],1.57 and 1.62
same,Mean CBPI,[2],1.59
same,CBPI,[3],1.47 and 1.46
same,Mean CBPI,[3],1.46
same,CBPI,[4],1.25
same,Mean CBPI,[4],1.25
same,CBPI,[5],1.24
same,Mean CBPI,[5],1.24
same,Cytotoxicity (%),"extended treatment in the absence of S9 mix, 0.062 mmol/L",Cell death
same,Cytotoxicity (%),"extended treatment in the absence of S9 mix, 0.125 mmol/L",Cell death
same,CBPI,[6],1.83 and 1.84
same,Mean CBPI,[6],1.84
same,CBPI,[7],1.64 and 1.66
same,Mean CBPI,[7],1.65
same,CBPI,[8],1.28 and 1.38
same,Mean CBPI,[8],1.33
same,CBPI,[9],1.28
same,Mean CBPI,[9],1.26
same,Cytotoxicity (%),"short treatment in absence of S9 mix, 0.40 mmol/L",Cell death
same,Cytotoxicity (%),"short treatment in absence of S9 mix, 0.50 mmol/L",Cell death
same,Cytotoxicity (%),"short treatment in absence of S9 mix, 1.00 mmol/L",Cell death
same,Cytotoxicity (%),"short treatment in absence of S9 mix, 5.00 mmol/L",Cell death
same,Cytotoxicity (%),"short treatment in absence of S9 mix, 10.00 mmol/L",Cell death
same,concentrations with evidence of toxicity,short treatment in the absence of S9 mix,≥ 250 µM
same,concentrations with evidence of toxicity,short treatment in the presence of S9 mix,≥ 250 µM
same,CBPI,[10],1.83 and 1.84
same,Mean CBPI,[10],1.83
same,CBPI,[11],1.86 and 1.82
same,Mean CBPI,[11],1.84
same,CBPI,[12],1.63 and 1.66
same,Mean CBPI,[12],1.65
same,CBPI,[13],1.20 and 1.23
same,Mean CBPI,[13],1.22
same,Cytotoxicity (%),"short treatment in the presence of S9 mix, 0.40 mmol/L",Cell death
same,Cytotoxicity (%),"short treatment in the presence of S9 mix, 0.50 mmol/L",Cell death
same,Cytotoxicity (%),"short treatment in the presence of S9 mix, 1.00 mmol/L",Cell death
same,Cytotoxicity (%),"short treatment in the presence of S9 mix, 5.00 mmol/L",Cell death
same,Cytotoxicity (%),"short treatment in the presence of S9 mix, 10.00 mmol/L",Cell death

# Source: article PMC9871744 (Cellular and Molecular Gastroenterology and Hepatology, 2022)
